Assays:
[1] = test system: MDA-MB-231 human breast cancer cells; assay: MDA-MB-231 cells on 2D adherent polystyrene culture plates (differentiated sub-population), cell viability; assay type: cell-based
Experimental: (§1) MDA-MB-231 human breast cancer cells were cultured on 2D adherent polystyrene culture plates that enriched the differentiated cell sub-population (CDC) and in 3D polyethylene glycol diacrylate crosslinked non-adherent matrix that enriches the stem sub-population (CSC). FIGS. 4A-4D compare cell content and the expression of CD44, ABCG2, and EGFR markers as a function of time.
FIGS. 5A-5D show the response of the MDA-MB-231 human breast cancer cells cultured in 2D adherent plates and 3D non-adherent matrix to treatment with Doxorubicin (DOX) cancer drug. For the 2D culture, cell viability decreased exponentially as the drug concentration increased (FIG. 5A) and reached about 5% as the drug concentration was increased to 5 μM.

[2] = test system: MDA-MB-231 human breast cancer cells; assay: MDA-MB-231 cells in 3D non-adherent PEG diacrylate matrix (stem sub-population), cell viability and tumorsphere number; assay type: cell-based
CD44 = assay: Expression of CSC marker CD44 in MDA-MB-231 cells in 3D non-adherent matrix; assay type: cell-based, human
Experimental: as §1
(§2) FIG. 6A and FIG. 6B show the expression of CSC markers CD44 and EGFR, respectively, of MDA-MB-231 (MDA) human breast cancer cells grown in a 3D non-adherent matrix, as described in Example 1 above, after exposure to free Paclitaxel (PTX) or PTX conjugated to POSS nanoparticles (PTXconjPOSS) as a function of incubation time.

EGFR = assay: Expression of stem cell marker EGFR in MDA-MB-231 cells in 3D non-adherent matrix; assay type: cell-based, human; settings: as a function of incubation time (FIG. 6B)
Experimental: as §1, §2

| Structure (SMILES) | cells removed ([1]; 2D culture (FIG. 5A)) [%] | viability at 5 µM ([1]; Homo sapiens, MDA-MB-231, 2D culture, drug concentration 5 μM (FIG. 5A)) [%] | number of tumorspheres ([2]; 3D matrix, 0.5 μM DOX concentration (FIG. 5C)) | number of tumorspheres, % of the initial number ([2]; 3D matrix, DOX concentration above 0.5 μM (FIG. 5C)) [%] | cell viability ([2]; 3D matrix, drug concentration 0.5 μM (FIG. 5B)) | effectiveness against cells in 3D non-adherent matrix ([2]; 3D non-adherent matrix, stem cell sub-population dominates (FIGS. 5B-5D)) | viability at 5 µM ([2]; Homo sapiens, MDA-MB-231, 3D matrix, 5 μM DOX concentration (FIG. 5B)) [%] | expression of CSC marker CD44 (CD44; 3D matrix, higher DOX concentrations (FIG. 5D)) | effectiveness against the differentiated sub-population of cancer cells ([1]; no data shown) | expression of CD44 (CD44; 3D non-adherent matrix, as a function of incubation time (FIG. 6A)) | toxicity to CSCs (CD44; concluded from CD44 and EGFR expression in 3D non-adherent matrix) | expression of EGFR (EGFR) |
| --- | --- | --- | --- | --- | --- | --- | --- | --- | --- | --- | --- | --- |
| COc1cccc2c1C(=O)c1c(O)c3c(c(O)c1C2=O)C[C@@](O)(C(=O)CO)C[C@@H]3O[C@H]1C[C@H](N)[C@H](O)[C@H](C)O1 [DOX, Doxorubicin] | 95 | ~5 | first increased | 85 | first increased | not effective | 35 | dramatically increased | – | – | – | – |
| CC(=O)O[C@H]1C(=O)[C@@]2(C)[C@H]([C@H](OC(=O)c3ccccc3)[C@]3(O)C[C@H](OC(=O)[C@H](O)[C@@H](NC(=O)c4ccccc4)c4ccccc4)C(C)=C1C3(C)C)[C@]1(OC(C)=O)CO[C@@H]1C[C@@H]2O [PTX, Paclitaxel] | – | – | – | – | – | – | – | – | effective | very high expression | not toxic to CSCs | very high expression |
